In ChEMBL document CHEMBL1201862, “PubChem BioAssay data set” (2004):
Active and inactive are the calls of the source.

Columns and labels:
cells = assay type: functional
Streptococcus = assay: GAS UMAA2166 growth inhibition – luminescence, BacTiterGlo, counter-screen for streptokinase expression inhibitor project, dose response (AID 1915); assay type: functional, organism-based;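 also: potency for reduction of bacterial viability or growth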
[1] = target: E3 ubiquitin-protein ligase Mdm2 (Homo sapiens, UniProt Q00987); assay: MDM2-luc reporter signal enhancers, multi-concentration potency testing, MDM2 ubiquitin-protein ligase inhibitor program, whole-cell format, luminescence detection, 384-well microplate (AID 1394); assay type: functional;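 also: MDM2 E3 inhibitors raise luminescence so EC50 is for signal enhancement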
[2] = THP-1 cell cytotoxicity, dose response, cytotoxicity control for non-replicating M. tuberculosis project (AID 489025); assay type: functional
[3] = Vero E6 cell cytotoxicity, dose response, cytotoxicity control for non-replicating M. tuberculosis project, secondary assay (AID 492998); assay type: functional, VeroE6; details: Vero C1008
[4] = system: Streptococcus sp. 'group A'; assay: Streptococcus pyogenes SK(-)GAS viability under kanamycin – luminescence, BacTiterGlo, confirmation, counter-screen for streptokinase expression inhibitor project, dose response (AID 1900); assay type: functional, organism-based
[5] = target: Mitochondrial peptide methionine sulfoxide reductase (Bos taurus, UniProt P54149); assay: Absorbance-based biochemical high throughput dose response assay for activators of Methionine sulfoxide reductase A (MsrA).; assay type: functional
[6] = M. tuberculosis growth inhibition, HTS (AID 449762); assay type: functional
[7] = target: Glutathione-S-transferase (Schistosoma japonicum, UniProt Q26513); assay: GST-antibody interaction or FRET quenching – biochemical, TR-FRET, artefact control for Vif-APOBEC3G degradation inhibitor project, dose response (AID 1117362); assay type: functional
[8] = target: Beta-adrenergic receptor kinase 1 (Homo sapiens, UniProt P25098); assay: aptamer displacement from bead-bound GRK2 – biochemical, cherry pick 1, bead flow cytometry, dose response (AID 504500)
Ephrin type-A receptor 4 = Ephrin type-A receptor 4 (Mus musculus, UniProt Q03137); assay: EphA4 ligand-binding antagonists – biochemical, colorimetric, mouse EphA4, primary screen (AID 689); assay type: functional
ORF 73 = ORF 73 (Human herpesvirus 8, UniProt O40947); assay: KSHV LANA DNA-binding disruption – biochemical, fluorescence polarization, cherry-picked samples, dose response (AID 504725); design: species or system Human gammaherpesvirus 8;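 also: fluorescence polarization of a labeled DNA duplex reporting LANA DNA binding; potency is for inhibitors that block LANA binding to the DNA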
[9] = target: T1, Voltage-gated N-type calcium channel alpha-1B subunit/Amyloid beta A4 precursor protein-binding family A member 1 (Homo sapiens, UniProt Q00975+Q02410); assay type: protein assay
SUMO-activating enzyme [10] = target: T2, SUMO-activating enzyme (Homo sapiens, UniProt Q9UBT2); assay: blockers of UBC9-mediated SUMO conjugation – biochemical, AlphaScreen, SUMOylation inhibitor project, confirmation (AID 2018); assay type: functional
[11] = target: Induced myeloid leukemia cell differentiation protein Mcl-1 (Homo sapiens, UniProt Q07820); assay type: functional
[12] = target: Bifunctional protein GlmU (Mycobacterium tuberculosis, UniProt P9WMN3); assay: Inhibitors of Mycobacterial Glucosamine-1-phosphate acetyl transferase (GlmU). Secondary screen.; design: species or system Mycobacterium tuberculosis H37Rv
SUMO-activating enzyme [13] = target: T2, SUMO-activating enzyme; assay: blockers of SAE1/SAE2–UBC9 SUMO transfer – biochemical, HTRF, uHTS, primary screen (AID 2006); assay type: protein-complex assay
[14] = target: T1, Voltage-gated N-type calcium channel alpha-1B subunit/Amyloid beta A4 precursor protein-binding family A member 1; assay type: protein assay; remark: listed apart in the source
[15] = target: Eukaryotic translation initiation factor 4E (Mus musculus, UniProt P63073); assay: blockers of eIF4G binding by eIF4E – biochemical, TR-FRET, dose response (AID 855); assay type: functional;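 also: potency for disrupting eIF4E binding to eIF4GI seen as loss of FRET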
Large T antigen = Large T antigen (Simian virus 40, UniProt P03070); assay type: functional, Betapolyomavirus macacae;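 also: Confirmatory-stage PubChem screen for compounds that inhibit SV40 T antigen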
Genome polyprotein = Genome polyprotein (Hepatitis C virus, UniProt Q2Q167); assay: disruption of hepatitis C core self-association – biochemical, TR-FRET, dose response (AID 2159); design: species or system Hepacivirus hominis;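 also: blocks dimerization of HCV core protein measured by TR-FRET between tagged core106 pairs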
[16] = target: Peroxisome proliferator-activated receptor gamma/Nuclear receptor coactivator 2 (Homo sapiens, UniProt P37231); assay: (§1) TR-FRET dose response biochemical High Throughput Screening assay for agonists of the steroid receptor coactivator 2 (SRC-2) recruitment by the peroxisome proliferator-activated receptor gamma (PPAR gamma): non-selective agonists. [Related pubchem assays: 1297, 1032 ]; assay type: functional
[17] = target: Peroxisome proliferator-activated receptor gamma/Nuclear receptor coactivator 3 (Homo sapiens, UniProt P37231); assay: as §1, with “3 (SRC-3)” for “2 (SRC-2)”, “1301 (Confirmation screen.), 1048 (Primary screen.)]” for “1297, 1032 ]”; assay type: functional
Estrogen receptor = target: T3, Estrogen receptor (Homo sapiens, UniProt P03372);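 also: potency for inhibiting coactivator peptide recruitment to the receptor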
T3 sequence (P03372 whole entry): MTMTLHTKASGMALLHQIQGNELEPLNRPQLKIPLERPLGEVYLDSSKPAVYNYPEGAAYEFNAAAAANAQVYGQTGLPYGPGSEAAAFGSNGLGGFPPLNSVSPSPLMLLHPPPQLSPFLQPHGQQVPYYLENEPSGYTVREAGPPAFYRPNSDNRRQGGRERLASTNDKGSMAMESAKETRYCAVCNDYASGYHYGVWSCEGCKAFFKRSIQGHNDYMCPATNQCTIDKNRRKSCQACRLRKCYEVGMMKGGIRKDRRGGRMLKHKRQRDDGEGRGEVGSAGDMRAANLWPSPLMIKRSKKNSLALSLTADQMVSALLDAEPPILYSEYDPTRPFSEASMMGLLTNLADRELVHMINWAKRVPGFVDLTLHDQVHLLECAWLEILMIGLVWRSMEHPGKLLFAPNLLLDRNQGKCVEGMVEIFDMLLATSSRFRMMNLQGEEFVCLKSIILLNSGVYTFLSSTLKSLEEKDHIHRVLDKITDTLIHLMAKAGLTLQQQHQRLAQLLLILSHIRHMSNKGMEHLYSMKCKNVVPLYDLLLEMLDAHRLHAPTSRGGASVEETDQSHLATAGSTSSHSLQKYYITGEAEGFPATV

[18] = target: Peroxisome proliferator-activated receptor gamma/Nuclear receptor coactivator 1 (Homo sapiens, UniProt P37231); assay: as §1, with “1 (SRC-1)” for “2 (SRC-2)”, “assays (depositor defined):AID1300, AID1808, AID504735, AID631]” for “assays: 1297, 1032 ]”; assay type: protein assay
[19] = target: Heat shock protein HSP 90-alpha (Homo sapiens, UniProt P07900); assay: Luminescence-based dose response biochemical high throughput screening assay for inhibitors of the Heat Shock Protein 90 (HSP90). [Related pubchem assays: 1831 (Summary AID.), 1846 (Confirmation screen.), 1789 (Primary screen.)]

T2 sequence (Q9UBE0 whole entry): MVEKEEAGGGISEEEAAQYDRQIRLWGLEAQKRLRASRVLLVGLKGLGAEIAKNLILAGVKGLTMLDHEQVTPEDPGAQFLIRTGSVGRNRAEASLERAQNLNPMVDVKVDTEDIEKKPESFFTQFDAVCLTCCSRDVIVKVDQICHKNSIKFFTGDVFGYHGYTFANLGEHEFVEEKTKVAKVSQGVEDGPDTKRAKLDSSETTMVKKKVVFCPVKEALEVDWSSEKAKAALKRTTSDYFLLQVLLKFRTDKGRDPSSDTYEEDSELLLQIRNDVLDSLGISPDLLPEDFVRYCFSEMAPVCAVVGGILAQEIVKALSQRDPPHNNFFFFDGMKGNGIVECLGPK
T2 sequence (Q9UBT2 whole entry): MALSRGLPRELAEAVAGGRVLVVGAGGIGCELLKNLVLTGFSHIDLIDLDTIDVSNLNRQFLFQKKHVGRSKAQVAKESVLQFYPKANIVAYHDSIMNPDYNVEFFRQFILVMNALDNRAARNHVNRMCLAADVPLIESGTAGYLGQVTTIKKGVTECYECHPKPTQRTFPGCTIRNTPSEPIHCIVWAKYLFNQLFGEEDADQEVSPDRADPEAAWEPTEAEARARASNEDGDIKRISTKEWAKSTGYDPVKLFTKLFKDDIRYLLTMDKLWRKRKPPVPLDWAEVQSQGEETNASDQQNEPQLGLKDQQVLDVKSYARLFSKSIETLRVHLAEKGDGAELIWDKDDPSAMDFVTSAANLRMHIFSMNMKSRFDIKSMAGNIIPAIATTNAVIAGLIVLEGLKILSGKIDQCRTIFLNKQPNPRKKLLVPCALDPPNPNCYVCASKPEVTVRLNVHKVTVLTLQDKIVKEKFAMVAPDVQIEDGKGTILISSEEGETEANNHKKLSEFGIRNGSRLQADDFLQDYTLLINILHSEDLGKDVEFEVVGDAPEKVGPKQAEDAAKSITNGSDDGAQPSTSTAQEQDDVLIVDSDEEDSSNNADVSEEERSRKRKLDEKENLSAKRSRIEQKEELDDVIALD
Chain of Beta-adrenergic receptor kinase 1 (P25098 whole entry): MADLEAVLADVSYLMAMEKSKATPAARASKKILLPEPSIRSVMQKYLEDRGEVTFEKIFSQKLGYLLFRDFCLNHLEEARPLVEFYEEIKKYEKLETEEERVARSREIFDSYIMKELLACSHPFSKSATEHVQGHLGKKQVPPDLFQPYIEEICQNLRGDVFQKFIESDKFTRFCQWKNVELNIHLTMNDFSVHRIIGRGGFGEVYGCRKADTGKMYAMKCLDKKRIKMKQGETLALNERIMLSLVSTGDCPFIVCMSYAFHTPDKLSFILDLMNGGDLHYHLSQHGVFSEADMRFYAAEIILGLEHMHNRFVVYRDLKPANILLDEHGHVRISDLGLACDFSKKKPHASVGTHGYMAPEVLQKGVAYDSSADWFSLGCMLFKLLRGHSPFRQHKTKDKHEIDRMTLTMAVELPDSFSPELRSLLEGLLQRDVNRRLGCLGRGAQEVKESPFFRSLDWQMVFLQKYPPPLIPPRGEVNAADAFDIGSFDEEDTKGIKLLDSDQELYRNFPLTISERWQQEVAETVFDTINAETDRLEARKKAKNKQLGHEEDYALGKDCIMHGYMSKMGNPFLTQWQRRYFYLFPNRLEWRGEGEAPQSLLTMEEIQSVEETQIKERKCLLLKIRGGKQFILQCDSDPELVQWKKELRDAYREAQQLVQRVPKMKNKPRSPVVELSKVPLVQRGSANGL
T1 sequence (Q00975 whole entry): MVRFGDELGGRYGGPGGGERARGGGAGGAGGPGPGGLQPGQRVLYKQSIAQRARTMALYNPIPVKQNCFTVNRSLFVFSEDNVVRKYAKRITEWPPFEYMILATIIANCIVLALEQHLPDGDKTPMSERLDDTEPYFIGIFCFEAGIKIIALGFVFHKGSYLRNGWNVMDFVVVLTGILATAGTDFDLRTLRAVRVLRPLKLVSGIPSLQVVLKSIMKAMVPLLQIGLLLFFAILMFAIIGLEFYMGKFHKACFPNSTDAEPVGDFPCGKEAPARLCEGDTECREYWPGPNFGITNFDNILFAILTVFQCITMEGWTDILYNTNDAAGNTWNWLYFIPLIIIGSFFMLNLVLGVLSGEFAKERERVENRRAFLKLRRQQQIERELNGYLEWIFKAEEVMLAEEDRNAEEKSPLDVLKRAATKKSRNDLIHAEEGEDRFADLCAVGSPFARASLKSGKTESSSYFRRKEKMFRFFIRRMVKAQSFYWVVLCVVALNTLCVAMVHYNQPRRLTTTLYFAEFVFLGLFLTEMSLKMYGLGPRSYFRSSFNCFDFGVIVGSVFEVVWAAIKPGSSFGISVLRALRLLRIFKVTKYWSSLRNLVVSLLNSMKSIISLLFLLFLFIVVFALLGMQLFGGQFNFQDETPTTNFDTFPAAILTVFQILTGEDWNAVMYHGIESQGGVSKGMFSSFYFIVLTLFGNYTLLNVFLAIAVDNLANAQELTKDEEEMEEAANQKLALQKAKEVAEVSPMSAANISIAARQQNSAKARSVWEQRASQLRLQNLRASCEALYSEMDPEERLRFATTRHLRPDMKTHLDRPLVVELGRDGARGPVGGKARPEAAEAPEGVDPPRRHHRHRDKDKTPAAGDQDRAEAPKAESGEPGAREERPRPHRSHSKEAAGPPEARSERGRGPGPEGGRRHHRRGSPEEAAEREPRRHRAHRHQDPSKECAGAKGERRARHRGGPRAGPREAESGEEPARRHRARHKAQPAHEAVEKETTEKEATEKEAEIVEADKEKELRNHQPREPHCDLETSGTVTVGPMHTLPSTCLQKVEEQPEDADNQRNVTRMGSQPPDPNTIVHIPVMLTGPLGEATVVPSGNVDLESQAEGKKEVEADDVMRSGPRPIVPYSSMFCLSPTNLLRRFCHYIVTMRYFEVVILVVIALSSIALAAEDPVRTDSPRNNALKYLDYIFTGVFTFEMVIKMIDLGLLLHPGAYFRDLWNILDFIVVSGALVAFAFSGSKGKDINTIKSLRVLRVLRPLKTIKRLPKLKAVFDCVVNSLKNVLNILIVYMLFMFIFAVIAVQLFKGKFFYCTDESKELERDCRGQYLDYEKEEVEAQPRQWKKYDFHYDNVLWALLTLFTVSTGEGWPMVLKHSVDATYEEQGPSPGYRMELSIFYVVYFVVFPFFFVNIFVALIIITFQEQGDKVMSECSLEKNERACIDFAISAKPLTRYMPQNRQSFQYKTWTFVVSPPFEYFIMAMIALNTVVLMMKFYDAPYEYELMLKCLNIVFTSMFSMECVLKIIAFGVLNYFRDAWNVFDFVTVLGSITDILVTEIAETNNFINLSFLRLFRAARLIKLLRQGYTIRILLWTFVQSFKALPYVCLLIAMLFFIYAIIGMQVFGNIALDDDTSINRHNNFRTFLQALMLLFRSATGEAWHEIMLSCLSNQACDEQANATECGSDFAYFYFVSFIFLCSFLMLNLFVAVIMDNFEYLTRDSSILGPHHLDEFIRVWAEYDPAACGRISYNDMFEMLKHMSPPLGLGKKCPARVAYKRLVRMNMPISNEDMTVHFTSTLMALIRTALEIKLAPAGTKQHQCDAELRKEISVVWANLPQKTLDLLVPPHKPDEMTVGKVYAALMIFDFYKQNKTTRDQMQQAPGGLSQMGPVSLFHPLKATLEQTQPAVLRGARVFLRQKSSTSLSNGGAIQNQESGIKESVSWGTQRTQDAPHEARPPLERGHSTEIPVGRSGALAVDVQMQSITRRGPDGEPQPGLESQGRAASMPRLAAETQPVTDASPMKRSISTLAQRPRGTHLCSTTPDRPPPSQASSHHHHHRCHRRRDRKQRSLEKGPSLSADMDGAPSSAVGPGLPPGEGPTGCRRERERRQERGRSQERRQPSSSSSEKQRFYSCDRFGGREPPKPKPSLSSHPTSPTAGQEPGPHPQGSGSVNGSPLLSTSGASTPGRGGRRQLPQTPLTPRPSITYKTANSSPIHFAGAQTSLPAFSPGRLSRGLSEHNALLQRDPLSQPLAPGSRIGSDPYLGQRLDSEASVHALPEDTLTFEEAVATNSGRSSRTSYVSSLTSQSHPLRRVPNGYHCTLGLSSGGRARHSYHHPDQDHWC
T1 sequence (Q02410 whole entry): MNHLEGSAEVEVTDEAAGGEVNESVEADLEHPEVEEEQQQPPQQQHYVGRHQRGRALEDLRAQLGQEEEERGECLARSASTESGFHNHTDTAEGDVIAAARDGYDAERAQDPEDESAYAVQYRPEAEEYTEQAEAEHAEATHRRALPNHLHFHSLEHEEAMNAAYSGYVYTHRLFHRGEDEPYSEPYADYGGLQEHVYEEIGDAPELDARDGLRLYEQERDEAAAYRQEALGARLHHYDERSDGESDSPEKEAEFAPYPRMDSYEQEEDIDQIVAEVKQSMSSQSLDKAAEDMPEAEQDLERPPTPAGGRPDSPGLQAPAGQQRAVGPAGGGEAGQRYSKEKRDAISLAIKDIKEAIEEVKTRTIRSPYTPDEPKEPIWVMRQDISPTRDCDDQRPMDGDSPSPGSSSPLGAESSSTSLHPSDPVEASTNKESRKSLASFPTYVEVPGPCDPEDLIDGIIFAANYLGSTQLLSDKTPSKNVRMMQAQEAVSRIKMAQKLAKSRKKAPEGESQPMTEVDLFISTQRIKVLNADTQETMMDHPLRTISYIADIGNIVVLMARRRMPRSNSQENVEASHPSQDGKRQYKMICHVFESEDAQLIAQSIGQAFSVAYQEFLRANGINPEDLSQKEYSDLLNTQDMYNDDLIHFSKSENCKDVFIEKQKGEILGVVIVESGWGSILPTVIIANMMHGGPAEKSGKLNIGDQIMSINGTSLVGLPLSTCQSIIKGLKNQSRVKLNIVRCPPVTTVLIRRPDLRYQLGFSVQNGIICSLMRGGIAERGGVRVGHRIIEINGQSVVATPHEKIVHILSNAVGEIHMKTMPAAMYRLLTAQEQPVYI
Chain of Eukaryotic translation initiation factor 4E (P63073 whole entry): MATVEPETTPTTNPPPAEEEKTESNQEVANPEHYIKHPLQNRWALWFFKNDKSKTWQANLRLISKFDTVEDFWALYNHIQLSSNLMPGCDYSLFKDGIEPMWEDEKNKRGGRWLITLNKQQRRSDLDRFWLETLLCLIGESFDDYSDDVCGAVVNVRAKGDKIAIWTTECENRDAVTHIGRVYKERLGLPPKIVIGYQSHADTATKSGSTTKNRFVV

O=C(Nc1nnc(-c2ccc(Cl)cc2)o1)c1ccccc1Br
IC50 (cells): 3.74 µM (active)
EC50 (Streptococcus): 5.91 µM (active)
EC50 [1]: 12.8 µM (not active)
CC50 [2]: 37 µM (active)
CC50 [3]: 18 µM (active)
EC50 [4]: 3.15 µM (active)

Cc1ccc2[nH]c3c(c2c1)CN(C(=O)CN1CCN(c2ccccn2)CC1)CC3
EC50 [5]: > 104 µM (inactive)
IC50 [6]: > 100 µM (active)

C=C(C)C(=O)Nc1cccc(C2=NOC3(C2)C[C@@H](C(N)=O)N(C(=O)c2cc([N+](=O)[O-])cc([N+](=O)[O-])c2)C3)c1 (some centres not stated)
IC50 [7]: > 100 µM (active)
EC50 [8]: 10.6 µM (inactive)

Cc1ccccc1C(=O)c1cccn1CC(=O)NCC1CCCO1 (configuration not stated)
IC50 (Ephrin type-A receptor 4): > 100 µM (not active)

Cc1ccc(NC(=O)CN2C(=O)N/C(=C/c3cccn3-c3ccc(C(=O)O)cc3)C2=O)cc1
AC50 (ORF 73): 33.9 µM (active)
IC50 [9]: 10.5 µM (active)
IC50 (SUMO-activating enzyme [10]): 1.09 µM (active)
IC50 [11]: 0.996 µM (not active)
IC50 [12]: 29.4 µM (active)
IC50 (SUMO-activating enzyme [13]): 12 µM (active)
IC50 [14]: 28.9 µM (active)
IC50 [15]: 9.54 µM (active)
EC50 [8]: 1.21 µM (active)
IC50 (Large T antigen): 24.7 µM (active)

Cc1cc(C(=O)OCC(=O)c2ccc(Br)s2)no1
IC50 (Genome polyprotein): > 49.8 µM (not active)
EC50 [16]: 3.89 µM (active)
EC50 [17]: > 79.4 µM (not active)
IC50 (Estrogen receptor): 36.2 µM (not active)
EC50 [18]: 137 µM (inactive)

Cc1nc(NC(=O)c2ccc(F)cc2)sc1C(=O)Nc1ccc2c(c1)CCC2
IC50 [19]: 3.84 µM (active)
